In brackets after ≈: the same amount, converted by molar mass.
System: carbapenem-resistant A. baumannii (CRAB) isolates (n = 67)
Experiment: MIC, broth microdilution (EUCAST), carbapenem-resistant A. baumannii isolates
Type: cell-based, Acinetobacter baumannii
Details: for MIC: Acinetobacter baumannii
Text: The bacterial strains used in this study comprised 208 clinical isolates from the Spanish National Acinetobacter spp. 2020 Multicenter Collection, which was previously characterized in detail by our research group, including whole-genome sequencing, phylogenetics studies, clonal dynamics, and resistance mechanisms ([2], [29]). Additionally, a collection of A. baumannii ATCC 17978 transformants coding the blaOXA-23, blaOXA-24/40, blaOXA-51, blaOXA-58, blaOXA-143, and blaOXA-201 genes, previously constructed and described by our group ([30]), was used to determine the activity of enmetazobactam against strains carrying the main CHDLs of A. baumannii.
The antimicrobial susceptibility of the 208 Acinetobacter spp. isolates was assessed using the broth microdilution method, as described in the European Committee on Antimicrobial Susceptibility Testing (EUCAST) v.15 guidelines (http://www.eucast.org/clinical_breakpoints). […] MICs for enmetazobactam alone were assessed as well. […] Subsequently, MIC testing was also conducted with a collection of A. baumannii ATCC 17978 transformants expressing clinically relevant OXA-like carbapenemase genes.
The A. baumannii ATCC 19606 strain was used as the reference strain in all susceptibility experiments, in duplicate assays. Antibiotics were purchased from Sigma-Aldrich, except enmetazobactam and durlobactam, which were obtained from Advanz Pharma and MedChemExpress, respectively.

[1] = CHDLs-producing A. baumannii isolates (n = 67), durlobactam series, DUR fixed 4 mg/L in combinations

## CC1(C)[C@H](C(=O)O)N2C(=O)C[C@H]2S1(=O)=O [sulbactam]
  MIC distribution ≥64: 100%
MBC set, isolate Ab4, A. baumannii ST 2, ADC-30, OXA-66, ISAba1-OXA-23
  MIC: 16 µg/mL (≈ 68.6 µM)
MBC set, isolate Ab6, A. baumannii ST 2, ADC-30, OXA-66, ISAba1-OXA-23, TEM-12
  MIC: 16 µg/mL (≈ 68.6 µM)
MBC set, isolate Ab9, A. baumannii ST 2, ADC-30, OXA-66, OXA-23, TEM-12
  MIC: 4 µg/mL (≈ 17.1 µM)
Isolate Ab56, ST 1, ADC-75, OXA-69, OXA-23, ETZ fixed 8 mg/L in combinations
  MIC: 8 µg/mL
Isolate Ab83, ST 25, ADC-5, OXA-64, OXA-23, DUR fixed at 4 mg/L in combinations
  MIC: 32 µg/mL
Isolate Ab83, ST 25, ADC-5, OXA-64, OXA-23, ETZ fixed 8 mg/L in combinations
  MIC: 32 µg/mL
Isolate Ab109, ST 1, ADC-75, OXA-69, OXA-23, DUR fixed at 4 mg/L in combinations
  MIC: 16 µg/mL
Isolate Ab109, ST 1, ADC-75, OXA-69, OXA-23, ETZ fixed 8 mg/L in combinations
  MIC: 16 µg/mL
Isolate Ab133, ST 2, ADC-30, OXA-66, OXA-58, TEM-12, DUR fixed at 4 mg/L in combinations
  MIC: 32 µg/mL
Isolate Ab133, ST 2, ADC-30, OXA-66, OXA-58, TEM-12, ETZ fixed 8 mg/L in combinations
  MIC: 32 µg/mL
Isolate Ab134, ST 2, ADC-30, OXA-66, OXA-58, TEM-12, DUR fixed at 4 mg/L in combinations
  MIC: 32 µg/mL
Isolate Ab134, ST 2, ADC-30, OXA-66, OXA-58, TEM-12, ETZ fixed 8 mg/L in combinations
  MIC: 32 µg/mL
Isolate Ab137, ST 85, ADC-2, OXA-94, OXA-23, DUR fixed at 4 mg/L in combinations
  MIC: 16 µg/mL
Isolate Ab137, ST 85, ADC-2, OXA-94, OXA-23, ETZ fixed 8 mg/L in combinations
  MIC: 16 µg/mL
Isolate Ab138, ST 745, ADC-30, OXA-66, OXA-58, DUR fixed at 4 mg/L in combinations
  MIC: 4 µg/mL
Isolate Ab138, ST 745, ADC-30, OXA-66, OXA-58, ETZ fixed 8 mg/L in combinations
  MIC: 8 µg/mL
Isolate Ab140, ST 85, ADC-2, OXA-94, OXA-23, DUR fixed at 4 mg/L in combinations
  MIC: 16 µg/mL
Isolate Ab140, ST 85, ADC-2, OXA-94, OXA-23, ETZ fixed 8 mg/L in combinations
  MIC: 16 µg/mL
Isolate Ab141, ST 745, ADC-30, OXA-66, OXA-58, DUR fixed at 4 mg/L in combinations
  MIC: 8 µg/mL
Isolate Ab141, ST 745, ADC-30, OXA-66, OXA-58, ETZ fixed 8 mg/L in combinations
  MIC: 8 µg/mL
Isolate Ab144, ST 745, ADC-30, OXA-66, OXA-58, DUR fixed at 4 mg/L in combinations
  MIC: 8 µg/mL
Isolate Ab144, ST 745, ADC-30, OXA-66, OXA-58, ETZ fixed 8 mg/L in combinations
  MIC: 8 µg/mL
Isolate Ab169, ST 2, ADC-30, OXA-66, OXA-23, DUR fixed at 4 mg/L in combinations
  MIC: 16 µg/mL
Isolate Ab169, ST 2, ADC-30, OXA-66, OXA-23, ETZ fixed 8 mg/L in combinations
  MIC: 16 µg/mL
Isolate Ab171, ST 2, ADC-30, OXA-66, OXA-23, DUR fixed at 4 mg/L in combinations
  MIC: 16 µg/mL
Isolate Ab171, ST 2, ADC-30, OXA-66, OXA-23, ETZ fixed 8 mg/L in combinations
  MIC: 16 µg/mL
Isolate Ab173, ST 2, ISAba1-ADC-30, OXA-66, OXA-23, DUR fixed at 4 mg/L in combinations
  MIC: 32 µg/mL
Isolate Ab173, ST 2, ISAba1-ADC-30, OXA-66, OXA-23, ETZ fixed 8 mg/L in combinations
  MIC: 32 µg/mL
Isolate Ab174, ST 2, ADC-30, OXA-66, OXA-23, DUR fixed at 4 mg/L in combinations
  MIC: 16 µg/mL
Isolate Ab174, ST 2, ADC-30, OXA-66, OXA-23, ETZ fixed 8 mg/L in combinations
  MIC: 16 µg/mL
Isolate Ab179, ST 2, ADC-30, OXA-66, OXA-23, DUR fixed at 4 mg/L in combinations
  MIC: 16 µg/mL
Isolate Ab179, ST 2, ADC-30, OXA-66, OXA-23, ETZ fixed 8 mg/L in combinations
  MIC: 16 µg/mL
Isolate Ab180, ST 2, ADC-30, OXA-66, OXA-24/40, DUR fixed at 4 mg/L in combinations
  MIC: 4 µg/mL
Isolate Ab180, ST 2, ADC-30, OXA-66, OXA-24/40, ETZ fixed 8 mg/L in combinations
  MIC: 4 µg/mL
Isolate Ab181, ST 2, ADC-30, OXA-66, OXA-23, DUR fixed at 4 mg/L in combinations
  MIC: 16 µg/mL
Isolate Ab181, ST 2, ADC-30, OXA-66, OXA-23, ETZ fixed 8 mg/L in combinations
  MIC: 16 µg/mL
Isolate Ab182, ST 2, ADC-30, OXA-66, OXA-23, DUR fixed at 4 mg/L in combinations
  MIC: 8 µg/mL
Isolate Ab182, ST 2, ADC-30, OXA-66, OXA-23, ETZ fixed 8 mg/L in combinations
  MIC: 8 µg/mL
Isolate Ab183, ST 2, ADC-30, OXA-66, OXA-23, DUR fixed at 4 mg/L in combinations
  MIC: 8 µg/mL
Isolate Ab183, ST 2, ADC-30, OXA-66, OXA-23, ETZ fixed 8 mg/L in combinations
  MIC: 8 µg/mL
Isolate Ab184, ST 2, ADC-30, OXA-66, OXA-23, DUR fixed at 4 mg/L in combinations
  MIC: 16 µg/mL
Isolate Ab184, ST 2, ADC-30, OXA-66, OXA-23, ETZ fixed 8 mg/L in combinations
  MIC: 16 µg/mL
Isolate Ab186, ST 2, ADC-30, OXA-66, OXA-23, DUR fixed at 4 mg/L in combinations
  MIC: 16 µg/mL
Isolate Ab186, ST 2, ADC-30, OXA-66, OXA-23, ETZ fixed 8 mg/L in combinations
  MIC: 16 µg/mL
Isolate Ab191, ST 2, ADC-30, OXA-66, OXA-23, DUR fixed at 4 mg/L in combinations
  MIC: 16 µg/mL
Isolate Ab191, ST 2, ADC-30, OXA-66, OXA-23, ETZ fixed 8 mg/L in combinations
  MIC: 16 µg/mL
Isolate Ab192, ST 2, ADC-30, OXA-66, OXA-23, DUR fixed at 4 mg/L in combinations
  MIC: 16 µg/mL
Isolate Ab192, ST 2, ADC-30, OXA-66, OXA-23, ETZ fixed 8 mg/L in combinations
  MIC: 16 µg/mL
Isolate Ab194, ST 2, ADC-30, OXA-66, OXA-23, DUR fixed at 4 mg/L in combinations
  MIC: 16 µg/mL
Isolate Ab194, ST 2, ADC-30, OXA-66, OXA-23, ETZ fixed 8 mg/L in combinations
  MIC: 16 µg/mL
Isolate Ab199, ST 2, ADC-30, OXA-66, OXA-23, DUR fixed at 4 mg/L in combinations
  MIC: 16 µg/mL
Isolate Ab199, ST 2, ADC-30, OXA-66, OXA-23, ETZ fixed 8 mg/L in combinations
  MIC: 16 µg/mL
Isolate Ab201, ST 2, ADC-30, OXA-66, OXA-23, DUR fixed at 4 mg/L in combinations
  MIC: 16 µg/mL
Isolate Ab201, ST 2, ADC-30, OXA-66, OXA-23, ETZ fixed 8 mg/L in combinations
  MIC: 16 µg/mL
Isolate Ab204, ST 2, ADC-30, OXA-66, OXA-23, DUR fixed at 4 mg/L in combinations
  MIC: 16 µg/mL
Isolate Ab204, ST 2, ADC-30, OXA-66, OXA-23, ETZ fixed 8 mg/L in combinations
  MIC: 8 µg/mL
[1]
  MIC50: 16 µg/mL
  MIC90: 32 µg/mL
Cumulative % of CHDLs-producing A. baumannii isolates (n = 67) at MIC 0.12 mg/L, DUR fixed 4 mg/L in combinations
  MIC distribution 0.12: 0.0%
Cumulative % of CHDLs-producing A. baumannii isolates (n = 67) at MIC 0.25 mg/L, DUR fixed 4 mg/L in combinations
  MIC distribution 0.25: 0.0%
Cumulative % of CHDLs-producing A. baumannii isolates (n = 67) at MIC 0.5 mg/L, DUR fixed 4 mg/L in combinations
  MIC distribution 0.5: 0.0%
Cumulative % of CHDLs-producing A. baumannii isolates (n = 67) at MIC 1 mg/L, DUR fixed 4 mg/L in combinations
  MIC distribution 1: 0.0%
Cumulative % of CHDLs-producing A. baumannii isolates (n = 67) at MIC 2 mg/L, DUR fixed 4 mg/L in combinations
  MIC distribution 2: 13.4%
Cumulative % of CHDLs-producing A. baumannii isolates (n = 67) at MIC 4 mg/L, DUR fixed 4 mg/L in combinations
  MIC distribution 4: 20.9%
Cumulative % of CHDLs-producing A. baumannii isolates (n = 67) at MIC 8 mg/L, DUR fixed 4 mg/L in combinations
  MIC distribution 8: 34.3%
Cumulative % of CHDLs-producing A. baumannii isolates (n = 67) at MIC 16 mg/L, DUR fixed 4 mg/L in combinations
  MIC distribution 16: 89.6%
Cumulative % of CHDLs-producing A. baumannii isolates (n = 67) at MIC 32 mg/L, DUR fixed 4 mg/L in combinations
  MIC distribution 32: 100%
Cumulative share of CRAB isolates (n = 67) at MIC 0.12 mg/L, ETZ fixed 8 mg/L in combinations
  MIC distribution 0.12: 0
Cumulative share of CRAB isolates (n = 67) at MIC 0.25 mg/L, ETZ fixed 8 mg/L in combinations
  MIC distribution 0.25: 0
Cumulative share of CRAB isolates (n = 67) at MIC 0.5 mg/L, ETZ fixed 8 mg/L in combinations
  MIC distribution 0.5: 0
Cumulative share of CRAB isolates (n = 67) at MIC 1 mg/L, ETZ fixed 8 mg/L in combinations
  MIC distribution 1: 0
Cumulative share of CRAB isolates (n = 67) at MIC 2 mg/L, ETZ fixed 8 mg/L in combinations
  MIC distribution 2: 14.9
Cumulative share of CRAB isolates (n = 67) at MIC 4 mg/L, ETZ fixed 8 mg/L in combinations
  MIC distribution 4: 17.9
Cumulative share of CRAB isolates (n = 67) at MIC 8 mg/L, ETZ fixed 8 mg/L in combinations
  MIC distribution 8: 34.3
Cumulative share of CRAB isolates (n = 67) at MIC 16 mg/L, ETZ fixed 8 mg/L in combinations
  MIC distribution 16: 89.6
Cumulative share of CRAB isolates (n = 67) at MIC 32 mg/L, ETZ fixed 8 mg/L in combinations
  MIC distribution 32: 100
Cumulative share of CRAB isolates (n = 67) at MIC 64 mg/L, ETZ fixed 8 mg/L in combinations
  MIC distribution 64: 100

From publication PMC12888861, “Antibacterial activity of enmetazobactam against Acinetobacter spp.: a molecular dissection of mechanism of action and resistance determinants” (Antimicrobial Agents and Chemotherapy, 2025)
